ChEMBL document CHEMBL1201862, “PubChem BioAssay data set” (2004)
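1) Cells in 96-well plates. 2) Compound, 48 h, 5 concentrations. 3) Linear interpolation between surrounding doses. 4) Unreached endpoint = highest concentration. GI50 marks 50% less growth.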 Calls of active or inactive are those of the source. Rule as the data show it: active = GI50 up to about 1.1 µM and inactive = higher.

Assays:
Test in all cases: NCI tumour cell line growth inhibition, 48 h
SNB-78 = tested on: SNB-78
KM-20L2 = tested on: KM-20L2
LXFL 529 = tested on: LXFL 529
HOP-18 = tested on: HOP-18
RXF 631 = tested on: RXF 631
DMS-273 = tested on: DMS-273
DLD-1 = tested on: DLD-1
XF498 = tested on: XF498
DMS-114 = tested on: DMS-114

Measured: GI50

CC(=O)CC[N+](C)(C)C
inactive: SNB-78 12.5 µM | KM-20L2 25.7 µM | LXFL 529 12.9 µM | HOP-18 13.9 µM | RXF 631 28.8 µM | DMS-273 21 µM | DLD-1 10.1 µM

O=C1OC2CCCC[C@@H]2C2C[C@]34CCCCC3[C@@H](C(=O)O4)C12 (some centres undefined)
inactive: SNB-78 > 100 µM | KM-20L2 > 100 µM | XF498 > 100 µM | LXFL 529 > 100 µM | HOP-18 > 100 µM | DMS-114 > 100 µM | DLD-1 > 100 µM

CCCC(=O)c1ccc(=O)n(C)c1
inactive: KM-20L2 > 100 µM | XF498 > 100 µM | LXFL 529 > 100 µM | RXF 631 88.3 µM | DMS-114 > 100 µM | DMS-273 > 100 µM | DLD-1 > 100 µM

O=C1OC(c2ccccc2)=N/C1=C/NC(Cc1ccc(O)cc1)C(=O)O (centres undefined)
inactive: SNB-78 > 100 µM | KM-20L2 > 100 µM | XF498 > 100 µM | LXFL 529 > 100 µM | HOP-18 36.1 µM | DMS-114 > 100 µM | DMS-273 > 100 µM | DLD-1 > 100 µM

O=C(c1ccc(Cl)cc1)N(C(=S)N1CCN(c2ccccc2)CC1)c1ccccc1
inactive: SNB-78 > 100 µM | KM-20L2 > 100 µM | LXFL 529 > 100 µM | HOP-18 > 100 µM | DMS-273 > 100 µM | DLD-1 > 100 µM

O=C(CC(=O)C(=O)CC(=O)OCc1ccccc1)OCc1ccccc1
inactive: KM-20L2 > 100 µM | LXFL 529 > 100 µM | DMS-114 > 100 µM | DLD-1 60.8 µM

O=c1oc2ccccc2c(O)c1C(C/C(CCN1CCCC1)=N/O)c1ccccc1 (centres undefined)
inactive: KM-20L2 > 100 µM | XF498 > 100 µM | LXFL 529 > 100 µM | RXF 631 > 100 µM | DMS-114 > 100 µM | DLD-1 > 100 µM

O=C(CC(=O)N1N=C(N2c3ccccc3Sc3ccccc32)CC1c1ccccc1)Nc1ccc(Cl)cc1 (centres undefined)
inactive: SNB-78 > 100 µM | KM-20L2 > 100 µM | XF498 > 100 µM | LXFL 529 > 100 µM | HOP-18 > 100 µM | DMS-114 > 100 µM | DMS-273 > 100 µM | DLD-1 > 100 µM

CCCS(=O)(=O)/C(=C(\c1ccc(Br)cc1)S(=O)(=O)CCC)c1ccc(Br)cc1
inactive: SNB-78 > 10 µM | KM-20L2 > 10 µM | XF498 > 10 µM | LXFL 529 > 10 µM | HOP-18 > 10 µM | DMS-273 > 10 µM | DLD-1 > 10 µM

O=C(Nc1nc2ncn(CC(COc3ccccc3)OC(=O)c3ccccc3)c2c(=O)[nH]1)c1ccccc1 (centres undefined)
inactive: KM-20L2 > 100 µM | XF498 > 100 µM | RXF 631 > 100 µM | DMS-114 > 100 µM | DMS-273 > 100 µM

CCOC(=O)C1=C(C)N(Cc2ccccc2)C(C)=C(C(=O)OCC)C1c1ccccc1O
inactive: KM-20L2 41 µM | XF498 21.5 µM | LXFL 529 26.5 µM | HOP-18 44.2 µM | RXF 631 22.5 µM | DMS-114 17.9 µM | DMS-273 32.7 µM | DLD-1 27.9 µM

O=C1c2ccccc2C2(Br)C(=O)c3ccccc3C12 (centres undefined)
inactive: KM-20L2 > 100 µM | LXFL 529 > 100 µM | HOP-18 > 100 µM | RXF 631 10.4 µM | DMS-114 > 100 µM | DMS-273 19.6 µM | DLD-1 > 100 µM

COc1cc(C(=O)C/C(CCC(=O)Nc2ccccc2[N+](=O)[O-])=N\NC(=O)CC#N)ccc1O
inactive: KM-20L2 > 100 µM | XF498 > 100 µM | LXFL 529 > 100 µM | HOP-18 > 100 µM | RXF 631 > 100 µM | DMS-273 > 100 µM | DLD-1 > 100 µM

CC(C(=O)O)/C(=C\c1ccc2c(c1)OCO2)C(=O)O (centres undefined)
inactive: KM-20L2 > 100 µM | XF498 > 100 µM | LXFL 529 > 100 µM | HOP-18 > 100 µM | RXF 631 > 100 µM | DMS-114 > 100 µM | DMS-273 > 100 µM | DLD-1 > 100 µM

COc1cc(Br)c(/C=N\c2cccc3cc(OC)c(OC)cc23)cc1OC
inactive: SNB-78 55.8 µM | KM-20L2 55.6 µM | LXFL 529 25.9 µM | HOP-18 > 100 µM | RXF 631 50.5 µM | DMS-114 17.2 µM | DMS-273 43.4 µM | DLD-1 43.4 µM

COC(=O)C1(C(C)C)CCc2c(OC)ccc(OC)c2C1=O (centres undefined)
inactive: SNB-78 > 100 µM | KM-20L2 > 100 µM | XF498 > 100 µM | LXFL 529 > 100 µM | HOP-18 > 100 µM | DMS-114 > 100 µM | DLD-1 > 100 µM

NCCNCCNCc1c2ccccc2c(CNCCNCCN)c2ccccc12
inactive: SNB-78 98.6 µM | KM-20L2 41.4 µM | XF498 72.9 µM | LXFL 529 57.8 µM | HOP-18 49.8 µM | DMS-114 46.9 µM | DLD-1 > 100 µM

O=C1C(Cl)=C(N2CCN(CCOCCO)CC2)C(=O)c2ccccc21
inactive: SNB-78 15.3 µM | KM-20L2 18 µM | XF498 2.55 µM | LXFL 529 1.79 µM | HOP-18 16.3 µM | DMS-273 16.9 µM

CSC1(C)CC2C(CC1N1CCCCC1)C2(C)C (centres undefined)
inactive: SNB-78 > 100 µM | XF498 > 100 µM | LXFL 529 > 100 µM | HOP-18 > 100 µM | DMS-273 > 100 µM | DLD-1 > 100 µM
